How the values were obtained:
Assay type in all cases: physicochemical
[1] = Aerodynamic particle size measurement of salbutamol sulfate pMDI suspensions (Next Generation impactor)
Text: (§1) In general, aerosols with mass median aerodynamic diameters (MMAD) of at least 1 μm but less than 5 μm in size are suitable for effective deep lung deposition for therapeutic effect. Herein, fine particle fraction (FPF) is defined as the percentage of the ex-actuator delivered API having a MMAD of less than 5 μm when tested in vitro. Herein, “ex-actuator” delivered dose is used to describe the amount of API delivered past the actuator of a pMDI. Therefore, an aerosol with a high FPF is typically suitable for deep lung deposition.
(§2) In the following examples, dose consistency was determined by in vitro measurement of single actuation dose content at start, middle and end of pMDI unit life in line with U.S. Pharmacopeia (USP)<601>, using a flow rate of 28.3 L/min and apparatus A. Aerodynamic particle size distribution of the pMDI suspension aerosols was measured at start of unit life in line with U.S. Pharmacopeia (USP)<601> using a Next Generation impactor without pre-separator (apparatus 6) and a flow rate of 30 L/min.
(§3) In total, six suspension pMDI formulations were prepared in triplicate with sufficient fill weight to provide 60 actuations. Each suspension was filled into Kindeva FEP coated canisters, crimped with a Kindeva 50-μL valve. Each pMDI unit was sonicated for at least 10 minutes to disperse the suspended drug and tested with a Kindeva actuator having an exit orifice diameter (EOD) of 0.4 mm.
(§4) The mass median aerodynamic diameter (MMAD) and fine particle fraction (FPF) of each pMDI unit were measured by Next Generation cascade impaction (N=3) for each pMDI suspension.

[2] = Through life dose consistency of sodium cromoglycate pMDI suspensions (USP <601>, apparatus A)
Description: as §2
(§5) A first set of suspensions included no ethanol. A second set of suspensions included 2% ethanol by weight.
as §3, with “ten” for “six”

[3] = Aerodynamic particle size measurement of sodium cromoglycate pMDI suspensions (Next Generation impactor)
Text: as §1, §2, §5
as §3, with “ten” for “six”, “mm” for “mm.”
as §4

[4] = nominal ex-valve 0.5 mg/act, HFA-152a
[5] = nominal ex-valve 0.5 mg/act, HFO-1234ze(E)
[6] = nominal ex-valve 1.0 mg/act, HFA-152a
[7] = nominal ex-valve 1.0 mg/act, HFO-1234ze(E)
[8] = nominal ex-valve 2.0 mg/act, HFA-152a
[9] = nominal ex-valve 2.0 mg/act, HFO-1234ze(E)
[10] = nominal ex-valve 0.5 mg/act, HFA-152a/2% EtOH (w/w)
[11] = nominal ex-valve 0.5 mg/act, HFO-1234ze(E)/2% EtOH (w/w)
[12] = nominal ex-valve 1.0 mg/act, HFA-152a/2% EtOH (w/w)
[13] = nominal ex-valve 1.0 mg/act, HFO-1234ze(E)/2% EtOH (w/w)

In the case of salbutamol sulfate, the “MMAD values of aerosols, suitability” value ([1]; HFA-152a or HFO-1234ze(E), in-vitro) is reported as “in an appropriate respirable range”, the “FPF and MMAD in HFO-1234ze(E) compared with corresponding suspensions in HFA-152a” value ([1]; no ethanol) is reported as “consistently produced greater FPFs and smaller MMADs” and the “Mean FPF” value [1, 4] is reported as 45.6%. The “Mean MMAD” value [1, 4] was 2.98 μm, the “Mean FPF” value [1, 5] was 57.0% and the “Mean MMAD” value [1, 5] was 2.98 μm. For the same molecule, the “Mean FPF” value [1, 6] was 40.8%, the “Mean MMAD” value [1, 6] was 3.30 μm and the “Mean FPF” value [1, 7] was 52.4%. The “Mean MMAD” value [1, 7] was 3.12 μm, the “Mean FPF” value [1, 8] was 30.3% and the “Mean MMAD” value [1, 8] was 3.92 μm. For the same molecule, the “Mean FPF” value [1, 9] was 36.4% and the “Mean MMAD” value [1, 9] was 3.67 μm.
In the case of O=C(O)c1cc(=O)c2c(OCC(O)COc3cccc4oc(C(=O)O)cc(=O)c34)cccc2o1 [sodium cromoglycate], the “effect of addition of ethanol on through unit life ex-actuator delivered dose consistency” value ([2]; 2% ethanol by weight, HFA-152a or HFO-1234ze(E)) is reported as “did not always substantially improve”, the “through unit life ex-actuator delivered dose consistency” value ([2]; HFA-152a or HFO-1234ze(E) with and without 2% ethanol by weight) is reported as “relatively consistent” and the “MoL mean delivered dose” value [2, 4] is reported as 363.8 μg/act. The “SoL mean delivered dose” value [2, 4] was 611.8 μg/act, the “TL mean delivered dose” value [2, 4] was 427.8 μg/act and the “EoL mean delivered dose” value [2, 10] was 313.6 μg/act. For the same molecule, the “MoL mean delivered dose” value [2, 10] was 331.6 μg/act, the “SoL mean delivered dose” value [2, 10] was 675.8 μg/act and the “TL mean delivered dose” value [2, 10] was 440.3 μg/act. For the same molecule, the “EoL mean delivered dose” value [2, 5] was 158.7 μg/act, the “MoL mean delivered dose” value [2, 5] was 354.1 μg/act and the “SoL mean delivered dose” value [2, 5] was 419.4 μg/act. For the same molecule, the “TL mean delivered dose” value [2, 5] was 310.7 μg/act, the “EoL mean delivered dose” value [2, 11] was 315.4 μg/act and the “MoL mean delivered dose” value [2, 11] was 332.8 μg/act. The “SoL mean delivered dose” value [2, 11] was 940.2 μg/act, the “TL mean delivered dose” value [2, 11] was 529.5 μg/act and the “EoL mean delivered dose” value [2, 6] was 618.4 μg/act. The “MoL mean delivered dose” value [2, 6] was 931.3 μg/act, the “SoL mean delivered dose” value [2, 6] was 950.3 μg/act and the “TL mean delivered dose” value [2, 6] was 833.3 μg/act. For the same molecule, the “EoL mean delivered dose” value [2, 12] was 847.0 μg/act, the “MoL mean delivered dose” value [2, 12] was 906.3 μg/act and the “SoL mean delivered dose” value [2, 12] was 1027.9 μg/act. For the same molecule, the “TL mean delivered dose” value [2, 12] was 927.0 μg/act, the “EoL mean delivered dose” value [2, 7] was 695.5 μg/act and the “MoL mean delivered dose” value [2, 7] was 784.8 μg/act. For the same molecule, the “SoL mean delivered dose” value [2, 7] was 967.3 μg/act, the “TL mean delivered dose” value [2, 7] was 815.9 μg/act and the “EoL mean delivered dose” value [2, 13] was 735.1 μg/act. For the same molecule, the “MoL mean delivered dose” value [2, 13] was 917.0 μg/act, the “SoL mean delivered dose” value [2, 13] was 876.4 μg/act and the “TL mean delivered dose” value [2, 13] was 842.9 μg/act. For the same molecule, the “EoL mean delivered dose” value [2, 8] was 1694.4 μg/act, the “MoL mean delivered dose” value [2, 8] was 1590.1 μg/act and the “SoL mean delivered dose” value [2, 8] was 1782.4 μg/act. For the same molecule, the “TL mean delivered dose” value [2, 8] was 1689.0 μg/act, the “EoL mean delivered dose” value [2, 9] was 119.8 μg/act and the “MoL mean delivered dose” value [2, 9] was 879.1 μg/act. For the same molecule, the “SoL mean delivered dose” value [2, 9] was 2009.3 μg/act, the “TL mean delivered dose” value [2, 9] was 1255.0 μg/act and the “MMAD values of aerosols, suitability” value ([3]; HFA-152a or HFO-1234ze(E), with and without ethanol, in-vitro) was “in an appropriate respirable range”. For the same molecule, the “FPF and MMAD without ethanol compared with corresponding suspensions with 2% ethanol by weight” value ([3]; HFA-152a or HFO-1234ze(E), all nominal doses) was “consistently produced greater FPFs and smaller MMADs”, the “Mean FPF” value [3, 4] was 33.0% and the “Mean MMAD” value [3, 4] was 3.59 μm. For the same molecule, the “Mean FPF” value [3, 10] was 29.5%, the “Mean MMAD” value [3, 10] was 3.92 μm and the “Mean FPF” value [3, 5] was 41.3%. The “Mean MMAD” value [3, 5] was 3.41 μm, the “Mean FPF” value [3, 11] was 34.1% and the “Mean MMAD” value [3, 11] was 3.77 μm. For the same molecule, the “Mean FPF” value [3, 6] was 28.2%, the “Mean MMAD” value [3, 6] was 3.85 μm and the “Mean FPF” value [3, 12] was 25.2%. For the same molecule, the “Mean MMAD” value [3, 12] was 4.38 μm, the “Mean FPF” value [3, 7] was 34.7% and the “Mean MMAD” value [3, 7] was 3.72 μm. For the same molecule, the “Mean FPF” value [3, 13] was 30.9%, the “Mean MMAD” value [3, 13] was 4.13 μm and the “Mean FPF” value [3, 8] was 24.7%. For the same molecule, the “Mean MMAD” value [3, 8] was 4.39 μm, the “Mean FPF” value [3, 9] was 30.7% and the “Mean MMAD” value [3, 9] was 4.23 μm. The “FPF and MMAD in HFO-1234ze(E) compared with corresponding suspensions in HFA-152a” value ([3]; with or without ethanol) was “consistently produced greater FPFs and generally smaller MMADs”.
